Assay results taken from ChEMBL document CHEMBL1201862, “PubChem BioAssay data set” (2004).
Calls of active or inactive are those of the source.

What was measured:
[1] = biological target: T1, Rac GTPase-activating protein 1 (Homo sapiens, UniProt Q9H0H5); assay: blockers of MgcRacGAP-driven Rac1 GTP hydrolysis – biochemical, ADP Hunter fluorescence, primary and confirmatory, confirmation (AID 624330); assay type: functional
T1 sequence (Q9H0H5 whole entry): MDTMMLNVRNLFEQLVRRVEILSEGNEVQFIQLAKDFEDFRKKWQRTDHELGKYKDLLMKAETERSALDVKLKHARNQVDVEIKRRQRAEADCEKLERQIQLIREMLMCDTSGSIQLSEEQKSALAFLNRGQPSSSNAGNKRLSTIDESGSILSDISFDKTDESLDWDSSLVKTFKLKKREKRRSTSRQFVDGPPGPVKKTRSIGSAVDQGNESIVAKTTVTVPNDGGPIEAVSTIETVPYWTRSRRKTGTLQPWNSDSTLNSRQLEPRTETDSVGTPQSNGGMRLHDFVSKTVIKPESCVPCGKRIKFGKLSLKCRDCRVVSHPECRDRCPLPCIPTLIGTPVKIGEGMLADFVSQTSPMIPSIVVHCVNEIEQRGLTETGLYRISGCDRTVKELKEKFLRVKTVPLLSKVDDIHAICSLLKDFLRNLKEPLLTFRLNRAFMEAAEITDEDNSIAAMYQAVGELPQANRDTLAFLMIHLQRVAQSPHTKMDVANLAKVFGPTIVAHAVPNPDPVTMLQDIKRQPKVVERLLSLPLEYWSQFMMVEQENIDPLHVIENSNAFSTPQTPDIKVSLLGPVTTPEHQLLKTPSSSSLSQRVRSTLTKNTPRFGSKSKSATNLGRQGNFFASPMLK

[2] = viability loss in HeLa cells – cytotoxicity control for MgcRacGAP inhibitor project, dose response (AID 624300); assay type: functional
[3] = biological target: Glucose-6-phosphate 1-dehydrogenase (Homo sapiens, UniProt P11413); assay: inhibition of Homo sapiens G6PD, dose series – biochemical, fluorescence, selectivity assay for P. falciparum G6PD inhibitor project, dose response (AID 504792); assay type: functional
Glucose-6-phosphate 1-dehydrogenase, sequence (P11413 whole entry): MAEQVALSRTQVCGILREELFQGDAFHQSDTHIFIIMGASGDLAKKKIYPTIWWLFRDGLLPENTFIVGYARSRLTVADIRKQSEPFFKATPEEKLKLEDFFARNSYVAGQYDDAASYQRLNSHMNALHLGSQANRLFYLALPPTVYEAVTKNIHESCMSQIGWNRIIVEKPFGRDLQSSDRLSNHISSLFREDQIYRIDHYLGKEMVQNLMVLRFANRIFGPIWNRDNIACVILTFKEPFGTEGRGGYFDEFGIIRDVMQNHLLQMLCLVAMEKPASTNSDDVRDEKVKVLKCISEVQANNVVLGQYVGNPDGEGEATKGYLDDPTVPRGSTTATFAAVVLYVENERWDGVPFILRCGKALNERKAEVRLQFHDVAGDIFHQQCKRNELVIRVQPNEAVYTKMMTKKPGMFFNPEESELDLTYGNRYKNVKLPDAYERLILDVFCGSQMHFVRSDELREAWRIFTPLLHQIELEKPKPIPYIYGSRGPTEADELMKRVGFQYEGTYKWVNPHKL

Hexokinase = biological target: T2, Hexokinase (Trypanosoma brucei, UniProt Q38C41); assay: Confirmation assay for inhibitors of Trypanosoma brucei hexokinase 1-Analogue-first series. [Related pubchem assays (depositor defined):AID1430, AID1632, AID2516, AID2560, AID2579, AID2600, AID449725, AID492951]; assay type: functional
T2 sequence (Q38C41 whole entry): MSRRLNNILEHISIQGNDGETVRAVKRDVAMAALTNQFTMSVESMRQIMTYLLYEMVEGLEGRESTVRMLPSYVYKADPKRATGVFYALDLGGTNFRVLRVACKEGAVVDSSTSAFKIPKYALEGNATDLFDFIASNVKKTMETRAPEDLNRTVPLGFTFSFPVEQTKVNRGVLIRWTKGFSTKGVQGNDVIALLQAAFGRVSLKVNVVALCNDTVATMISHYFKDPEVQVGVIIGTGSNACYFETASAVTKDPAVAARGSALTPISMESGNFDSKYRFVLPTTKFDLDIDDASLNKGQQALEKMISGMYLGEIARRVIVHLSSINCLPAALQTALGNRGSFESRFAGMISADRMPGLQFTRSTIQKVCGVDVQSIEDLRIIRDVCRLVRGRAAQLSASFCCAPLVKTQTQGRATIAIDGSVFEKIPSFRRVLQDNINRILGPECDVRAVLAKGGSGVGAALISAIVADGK

[4] = microbe, parasite or virus in culture; assay type: functional; settings: Mycobacterium tuberculosis
[5] = Fluorescence-based cell-based high throughput dose response assay for inhibitors of the interaction of nucleotide-binding oligomerization domain containing 2 (NOD2) and the receptor-interacting serine-threonine kinase 2 (RIPK2).; assay type: functional; settings: Homo sapiens
[6] = Luminescence Cell-Based Dose Retest to Confirm Inhibitors of Cancer Stem Cells. [Related pubchem assays (depositor defined):AID2717, AID2721]; assay type: functional; settings: Homo sapiens
[7] = NIH3T3 cell viability loss – ATP luminescence, mouse fibroblasts, counter-screen, dose response (AID 2010); assay type: functional, cell-based;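 also: cells exposed to compound for about 90 hours before reading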
Paired box protein Pax-8 = Paired box protein Pax-8 (Homo sapiens, UniProt Q06710); assay: PAX8 transcriptional activity inhibition in RMG-I – RMG-I cells, luciferase, cherry-pick, dose response (AID 687027); assay type: functional, cell-based;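 also: luciferase reporter driven by Pax8 target thyroperoxidase promoter measured by SteadyGlo luminescence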
Paired box protein Pax-8, sequence (Q06710 whole entry): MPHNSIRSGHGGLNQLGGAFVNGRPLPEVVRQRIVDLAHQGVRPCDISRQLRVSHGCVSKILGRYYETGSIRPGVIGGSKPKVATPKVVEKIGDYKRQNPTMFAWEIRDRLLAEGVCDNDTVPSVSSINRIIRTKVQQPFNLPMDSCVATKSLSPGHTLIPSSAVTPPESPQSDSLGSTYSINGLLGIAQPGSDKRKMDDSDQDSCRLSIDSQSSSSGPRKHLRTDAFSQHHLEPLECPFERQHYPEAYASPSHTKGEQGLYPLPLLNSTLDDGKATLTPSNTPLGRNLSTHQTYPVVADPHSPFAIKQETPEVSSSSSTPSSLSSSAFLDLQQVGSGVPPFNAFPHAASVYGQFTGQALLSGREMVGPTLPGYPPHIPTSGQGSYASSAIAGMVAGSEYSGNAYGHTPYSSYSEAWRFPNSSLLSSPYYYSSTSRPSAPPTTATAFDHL

[8] = Trypanosoma cruzi growth suppression in host cells – NIH3T3 host cells, beta-gal luminescence, confirmation (AID 2044); assay type: functional, cell-based;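 also: intracellular parasites grown in NIH/3T3 mouse fibroblasts as host cells; luminescent beta-galactosidase reporter signal from transgenic T. cruzi replicating inside host cells; inhibitors lower the luminescence signal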
[9] = biological target: T3, DNA repair and recombination protein RAD54-like (Homo sapiens, UniProt Q92698); assay: RAD54 Holliday junction migration blockers – biochemical, fluorescence, cherry-picked samples, dose series, confirmation (AID 651657); assay type: functional
T3 sequence (Q92698 whole entry): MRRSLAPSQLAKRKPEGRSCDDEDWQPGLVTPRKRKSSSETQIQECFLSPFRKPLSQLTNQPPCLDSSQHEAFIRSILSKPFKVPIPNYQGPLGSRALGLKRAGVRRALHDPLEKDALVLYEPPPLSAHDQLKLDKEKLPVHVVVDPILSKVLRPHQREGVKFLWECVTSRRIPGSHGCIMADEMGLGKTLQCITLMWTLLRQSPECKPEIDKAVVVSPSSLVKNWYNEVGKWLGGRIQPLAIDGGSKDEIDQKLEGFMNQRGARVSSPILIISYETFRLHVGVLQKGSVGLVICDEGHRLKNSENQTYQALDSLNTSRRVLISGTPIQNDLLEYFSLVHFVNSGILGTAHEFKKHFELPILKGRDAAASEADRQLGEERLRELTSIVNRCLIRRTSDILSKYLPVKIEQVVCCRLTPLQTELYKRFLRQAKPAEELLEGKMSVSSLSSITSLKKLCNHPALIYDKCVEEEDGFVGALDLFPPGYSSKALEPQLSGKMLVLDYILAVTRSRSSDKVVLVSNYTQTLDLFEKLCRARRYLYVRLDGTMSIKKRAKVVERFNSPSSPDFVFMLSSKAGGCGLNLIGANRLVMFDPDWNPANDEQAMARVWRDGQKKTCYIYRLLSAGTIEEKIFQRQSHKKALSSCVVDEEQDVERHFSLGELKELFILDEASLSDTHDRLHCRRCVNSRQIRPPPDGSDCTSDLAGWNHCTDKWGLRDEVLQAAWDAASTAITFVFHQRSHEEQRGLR

cells [10] = assay type: functional, cell-based
INS1 = assay: INS-1E survival protection against cytokine death – cell-based, luminescence, retest, dose response (AID 449756); assay type: functional; settings: Rattus norvegicus;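 also: cell death triggered by IL-1 beta plus TNF-alpha plus IFN-gamma mixture; protective hits raise ATP signal compared with cytokine alone wells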
[11] = biological target: T4, Short transient receptor potential channel 4 (Mus musculus, UniProt Q9QUQ5); assay: block of DAMGO-driven TRPC4 calcium entry – cell-based, HEK293 TRPC4/mu-opioid, Fluo-4 calcium, dose response (AID 434942); assay type: functional;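 also: potency of inhibitors blocking the TRPC4 calcium response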
T4 sequence (Q9QUQ5 whole entry): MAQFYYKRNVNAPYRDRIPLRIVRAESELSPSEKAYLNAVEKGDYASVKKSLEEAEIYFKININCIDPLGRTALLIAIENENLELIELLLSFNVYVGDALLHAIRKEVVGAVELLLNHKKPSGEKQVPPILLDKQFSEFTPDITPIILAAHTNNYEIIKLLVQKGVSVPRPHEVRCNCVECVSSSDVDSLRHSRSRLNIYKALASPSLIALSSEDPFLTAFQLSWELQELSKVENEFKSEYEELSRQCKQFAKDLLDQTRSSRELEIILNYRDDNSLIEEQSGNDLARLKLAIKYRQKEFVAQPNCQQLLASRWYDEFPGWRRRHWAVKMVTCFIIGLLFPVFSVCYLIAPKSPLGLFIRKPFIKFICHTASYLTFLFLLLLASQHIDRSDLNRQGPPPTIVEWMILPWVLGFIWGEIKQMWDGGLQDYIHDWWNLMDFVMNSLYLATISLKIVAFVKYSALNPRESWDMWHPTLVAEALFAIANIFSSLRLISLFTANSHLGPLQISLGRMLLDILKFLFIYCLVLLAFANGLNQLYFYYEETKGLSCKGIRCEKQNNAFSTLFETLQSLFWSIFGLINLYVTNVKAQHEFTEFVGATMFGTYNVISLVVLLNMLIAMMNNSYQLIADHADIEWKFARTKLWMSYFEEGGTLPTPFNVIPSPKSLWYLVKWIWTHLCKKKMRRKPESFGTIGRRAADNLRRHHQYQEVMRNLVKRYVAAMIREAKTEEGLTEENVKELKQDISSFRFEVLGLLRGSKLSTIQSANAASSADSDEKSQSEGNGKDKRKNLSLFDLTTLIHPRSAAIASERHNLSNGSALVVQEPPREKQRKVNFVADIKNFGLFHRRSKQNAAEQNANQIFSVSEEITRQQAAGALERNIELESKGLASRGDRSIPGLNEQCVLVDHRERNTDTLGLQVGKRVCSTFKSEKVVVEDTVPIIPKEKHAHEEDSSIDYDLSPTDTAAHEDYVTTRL

cells [12] = assay type: functional, cell-based; remark: listed apart in the source
[13] = biological target: T5, DNA repair protein RAD52 homolog (Homo sapiens, UniProt P43351); assay type: functional, biochemical
T5 sequence (P43351 whole entry): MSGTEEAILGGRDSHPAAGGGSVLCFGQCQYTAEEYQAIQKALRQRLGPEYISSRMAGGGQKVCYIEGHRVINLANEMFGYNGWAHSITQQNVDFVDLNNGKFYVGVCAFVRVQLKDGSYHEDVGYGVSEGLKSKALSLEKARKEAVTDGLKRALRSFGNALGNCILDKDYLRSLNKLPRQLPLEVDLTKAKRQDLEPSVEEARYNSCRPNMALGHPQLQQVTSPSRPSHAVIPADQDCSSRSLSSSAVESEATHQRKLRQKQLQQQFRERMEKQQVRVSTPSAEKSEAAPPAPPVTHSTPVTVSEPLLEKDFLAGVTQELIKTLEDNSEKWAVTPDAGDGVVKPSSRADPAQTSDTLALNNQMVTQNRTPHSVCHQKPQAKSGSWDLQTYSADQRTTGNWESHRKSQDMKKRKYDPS

[14] = biological target: T6, High affinity choline transporter 1 (Homo sapiens, UniProt Q9GZV3); assay: human choline transporter blockers, potency – cell-based, 5-point CRC, membrane potential dye, dose response (AID 504840); assay type: functional
T6 sequence (Q9GZV3 whole entry): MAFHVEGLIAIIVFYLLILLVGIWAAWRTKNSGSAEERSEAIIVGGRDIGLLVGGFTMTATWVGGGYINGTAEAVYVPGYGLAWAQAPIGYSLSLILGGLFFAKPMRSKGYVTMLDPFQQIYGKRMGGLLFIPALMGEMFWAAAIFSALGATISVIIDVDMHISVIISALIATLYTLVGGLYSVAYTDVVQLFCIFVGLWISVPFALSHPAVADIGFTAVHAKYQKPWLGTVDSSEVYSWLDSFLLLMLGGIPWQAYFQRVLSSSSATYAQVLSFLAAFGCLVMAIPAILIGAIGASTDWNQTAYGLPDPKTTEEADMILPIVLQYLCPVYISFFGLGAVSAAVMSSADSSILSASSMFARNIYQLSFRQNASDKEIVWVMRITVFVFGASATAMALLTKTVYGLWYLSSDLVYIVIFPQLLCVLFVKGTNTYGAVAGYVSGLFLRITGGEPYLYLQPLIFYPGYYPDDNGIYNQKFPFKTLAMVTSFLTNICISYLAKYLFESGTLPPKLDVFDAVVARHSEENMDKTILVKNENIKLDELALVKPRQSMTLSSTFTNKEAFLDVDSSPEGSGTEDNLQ

Protein skinhead-1 = biological target: T7, Protein skinhead-1 (Caenorhabditis elegans, UniProt P34707); assay type: functional
T7 sequence (P34707 whole entry): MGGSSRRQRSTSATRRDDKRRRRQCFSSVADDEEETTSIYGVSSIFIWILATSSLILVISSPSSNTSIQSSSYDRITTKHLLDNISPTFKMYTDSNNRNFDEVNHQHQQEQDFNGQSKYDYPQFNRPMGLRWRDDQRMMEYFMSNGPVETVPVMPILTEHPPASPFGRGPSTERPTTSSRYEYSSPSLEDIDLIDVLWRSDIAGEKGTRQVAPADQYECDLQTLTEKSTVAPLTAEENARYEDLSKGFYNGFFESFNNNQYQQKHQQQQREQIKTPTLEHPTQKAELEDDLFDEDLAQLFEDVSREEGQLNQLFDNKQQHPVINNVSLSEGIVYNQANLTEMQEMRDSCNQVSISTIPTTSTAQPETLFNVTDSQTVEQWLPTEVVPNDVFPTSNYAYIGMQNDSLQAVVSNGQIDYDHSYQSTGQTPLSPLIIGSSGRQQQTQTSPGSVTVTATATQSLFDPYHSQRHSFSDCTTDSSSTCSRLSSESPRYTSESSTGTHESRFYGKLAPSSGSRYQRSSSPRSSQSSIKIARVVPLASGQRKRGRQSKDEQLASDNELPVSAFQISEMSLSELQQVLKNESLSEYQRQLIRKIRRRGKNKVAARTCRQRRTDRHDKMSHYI

SMILES | IC50 [1] | CC50 [2] | EC50 [7] | EC50 [8] | AC50 [9] | AC50 [13] | other results
O=c1c2ccccc2sn1-c1ccccc1F | 41 µM (active) | 72.2 µM (active) |  |  |  |  | IC50 [3]: 17.8 µM (active); IC50 (Hexokinase): 2.26 µM (active)
CN1CCN(c2ccc(S(=O)(=O)N3CCCCC3)cc2NC(=O)/C=C/c2ccc(Cl)c([N+](=O)[O-])c2)CC1 |  |  | > 60 µM (not active) | 1.85 µM (active) |  |  | CC50 [4]: 23.3 µM (active); IC50 [5]: 6.18 µM (active); AC50 [6]: 5.48 µM (active); AC50 (Paired box protein Pax-8): 12.6 µM (active)
c1ccc(CNc2c3ccccc3nc3ccccc23)cc1 |  |  | 8.87 µM (active) | 0.931 µM (active) | 5.21 µM (active) | 12.1 µM (active) | EC50 (cells [10]): > 350 µM (not active); AC50 (INS1): 3.79 µM (active); EC50 [11]: 1.33 µM (active); EC50 (cells [12]): > 350 µM (not active)
CCN1CCN(c2cc(C)c3cc(NC(=S)N4CCCCC4)ccc3n2)CC1 |  |  | > 60 µM (not active) | 2.28 µM (active) | 100 µM (inactive) | 14.1 µM (active) | IC50 [14]: 12.6 µM (active); IC50 (Protein skinhead-1): > 100 µM (inactive)
Cc1cc(-c2ccccc2)nc(N/N=C/c2ccc(N(C)C)cc2)n1 | 74.7 µM (active) | 100 µM (active) |  |  |  |  | 
